Target: T1, LPA1 (Homo sapiens, UniProt Q92633)
T1 construct: ProLink (PK) beta-galactosidase enzyme-fragment tag; host or cells: CHO-K1
Assay: LPA1 calcium flux assay (LPA1 functional antagonist assay)
Type: cell-based
Conditions: PathHunter CHO-K1 EDG2 β-Arrestin cell line; calcium indicator dye; stimulated with EC80 concentration of LPA; FLIPR Tetra
Description: Following overnight culture, cells were loaded with calcium indicator dye from the HitHunter Calcium No WashPLUS Assay kit (Eurofins DiscoverX Corporation, Cat #93-0091) for 45 minutes at 37° C. […] After compound addition, assay plates were equilibrated to room temperature for 30 minutes. […] IC50 values were determined by Chemical and Biological Information System from ChemInnovation Software, Inc. The compounds of this invention were tested for their activity to inhibit LPA1 as determined in an LPA1 functional antagonist assay as described herein.

T1 sequence (Q92633 whole entry, the tested form may be a part): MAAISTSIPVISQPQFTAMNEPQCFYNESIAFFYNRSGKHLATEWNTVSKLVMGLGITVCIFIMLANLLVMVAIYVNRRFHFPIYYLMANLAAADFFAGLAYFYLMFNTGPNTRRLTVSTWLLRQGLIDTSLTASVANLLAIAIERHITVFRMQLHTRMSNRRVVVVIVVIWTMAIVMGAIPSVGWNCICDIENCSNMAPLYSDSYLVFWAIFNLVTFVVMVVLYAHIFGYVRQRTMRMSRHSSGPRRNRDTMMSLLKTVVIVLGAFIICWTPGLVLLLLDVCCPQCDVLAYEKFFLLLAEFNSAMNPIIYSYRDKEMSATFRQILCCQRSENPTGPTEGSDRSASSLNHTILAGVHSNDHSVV

| Structure (SMILES) | IC50 |
| --- | --- |
| CCCc1cn(Cc2c(-c3ccc(N4C[C@@H](CC(=O)O)CC(F)(F)C4)c(C)n3)nnn2C)ccc1=O (stereo in doubt) [Example 43, (S)-2-(5,5-difluoro-1-(2-methyl-6-(1-methyl-5-((4-oxo-3-propylpyridin-1(4H)-yl)methyl)-1H-1,2,3-triazol-4-yl)pyridin-3-yl)piperidin-3-yl)acetic acid] | > 5000 nM |
| CCc1nc(-c2nnn(C)c2CNc2noc(CC3CC3)n2)ccc1N1C[C@@H](CC(=O)O)CC(F)(F)C1 [Example 117, (S)-2-(1-(6-(5-(((5-(cyclopropylmethyl)-1,2,4-oxadiazol-3-yl)amino)methyl)-1-methyl-1H-1,2,3-triazol-4-yl)-2-ethylpyridin-3-yl)-5,5-difluoropiperidin-3-yl)acetic acid] | 100 to 500 nM |
| CCCN(C)C(=O)OCc1c(-c2ccc(CN3CC(C(=O)O)CC(F)(F)C3)c(CC)n2)nnn1C (single isomer, unassigned) [Example 165, 1-((2-ethyl-6-(1-methyl-5-(((methyl(propyl)carbamoyl)oxy)methyl)-1H-1,2,3-triazol-4-yl)pyridin-3-yl)methyl)-5,5-difluoropiperidine-3-carboxylic acid] | 100 to 500 nM |
| CCCN(C)C(=O)OCc1c(-c2ccc(CN3CC(C(=O)O)CC(F)(F)C3)c(CC)n2)nnn1C (single isomer, unassigned) [Example 164, 1-((2-ethyl-6-(1-methyl-5-(((methyl(propyl)carbamoyl)oxy)methyl)-1H-1,2,3-triazol-4-yl)pyridin-3-yl)methyl)-5,5-difluoropiperidine-3-carboxylic acid] | > 5000 nM |
| Cc1nc(-c2nnn(C)c2COC(=O)N(C)C2CCC2)ccc1N1C[C@@H](CC(=O)O)CC(F)(F)C1 [Example 142, (S)-2-(1-(6-(5-(((cyclobutyl(methyl)carbamoyl)oxy)methyl)-1-methyl-1H-1,2,3-triazol-4-yl)-2-methylpyridin-3-yl)-5,5-difluoropiperidin-3-yl)acetic acid] | 100 to 500 nM |
| CCCc1ccc(=O)n(Cc2c(-c3cc(F)c(N4CCCC(CC(=O)O)C4)c(CC)n3)nnn2C)c1 (stereo not shown) [Example 48, 2-(1-(2-ethyl-4-fluoro-6-(1-methyl-5-((2-oxo-5-propylpyridin-1(2H)-yl)methyl)-1H-1,2,3-triazol-4-yl)pyridin-3-yl)piperidin-3-yl)acetic acid] | > 5000 nM |
| Cc1nc(-c2nnn(C)c2COc2nccc(C3CCC3)n2)ccc1N1C[C@@H](CC(=O)O)CC(F)(F)C1 [Example 76, (S)-2-(1-(6-(5-(((4-cyclobutylpyrimidin-2-yl)oxy)methyl)-1-methyl-1H-1,2,3-triazol-4-yl)-2-methylpyridin-3-yl)-5,5-difluoropiperidin-3-yl)acetic acid] | < 100 nM |
| CCc1nc(-c2nnn(C)c2COC(=O)N(C)C2CCC2)ccc1N1C[C@@H](CC(=O)O)CC(F)(F)C1 [Example 143, (S)-2-(1-(6-(5-(((cyclobutyl(methyl)carbamoyl)oxy)methyl)-1-methyl-1H-1,2,3-triazol-4-yl)-2-ethylpyridin-3-yl)-5,5-difluoropiperidin-3-yl)acetic acid] | < 100 nM |
| CCc1nc(-c2nnn(C)c2CNc2nccc(C3CCC3)n2)ccc1CN1CC(C(=O)O)CC(F)(F)C1 (single isomer, unassigned) [Example 162, (S) or (R)-1-((6-(5-(((4-cyclobutylpyrimidin-2-yl)amino)methyl)-1-methyl-1H-1,2,3-triazol-4-yl)-2-ethylpyridin-3-yl)methyl)-5,5-difluoropiperidine-3-carboxylic acid] | < 100 nM |
| CCc1nc(-c2nnn(C)c2CNc2nccc(C3CCC3)n2)ccc1CN1CC(C(=O)O)CC(F)(F)C1 (single isomer, unassigned) [Example 163, (R) or (S)-1-((6-(5-(((4-cyclobutylpyrimidin-2-yl)amino)methyl)-1-methyl-1H-1,2,3-triazol-4-yl)-2-ethylpyridin-3-yl)methyl)-5,5-difluoropiperidine-3-carboxylic acid] | 100 to 500 nM |
| CCCn1ccnc(OCc2c(-c3ccc(N4C[C@@H](CC(=O)O)CC(F)(F)C4)c(C)n3)nnn2C)c1=O [Example 106, (S)-2-(5,5-difluoro-1-(2-methyl-6-(1-methyl-5-(((3-oxo-4-propyl-3,4-dihydropyrazin-2-yl)oxy)methyl)-1H-1,2,3-triazol-4-yl)pyridin-3-yl)piperidin-3-yl)acetic acid] | > 5000 nM |
| Cc1nc(-c2nnn(C)c2COc2nnccc2CC(C)C)ccc1N1C[C@@H](CC(=O)O)CC(F)(F)C1 [Example 86, (S)-2-(5,5-difluoro-1-(6-(5-(((4-isobutylpyridazin-3-yl)oxy)methyl)-1-methyl-1H-1,2,3-triazol-4-yl)-2-methylpyridin-3-yl)piperidin-3-yl)acetic acid] | 100 to 500 nM |
| CCCN(C)C(=O)OCc1c(-c2ccc(N3CCC[C@H](CC(=O)O)C3)c(CC)n2)nnn1C [Example 145, (R)-2-(1-(2-ethyl-6-(1-methyl-5-(((methyl(propyl)carbamoyl)oxy)methyl)-1H-1,2,3-triazol-4-yl)pyridin-3-yl)piperidin-3-yl)acetic acid] | 500 to 5000 nM |
| CCCc1cnn(Cc2c(-c3ccc(CN4CC(C(=O)O)CC(F)(F)C4)c(C)n3)nnn2C)c(=O)c1 (single isomer, unassigned) [Example 158, (S) or (R)-5,5-difluoro-1-((2-methyl-6-(1-methyl-5-((6-oxo-4-propylpyridazin-1(6H)-yl)methyl)-1H-1,2,3-triazol-4-yl)pyridin-3-yl)methyl)piperidine-3-carboxylic acid] | > 5000 nM |
| CCCc1ccc(=O)n(Cc2c(-c3ccc(N4C[C@@H](CC(=O)O)CC(F)(F)C4)c(C)n3)nnn2C)n1 [Example 34, (S)-2-(5,5-difluoro-1-(2-methyl-6-(1-methyl-5-((6-oxo-3-propylpyridazin-1(6H)-yl)methyl)-1H-1,2,3-triazol-4-yl)pyridin-3-yl)piperidin-3-yl)acetic acid] | 500 to 5000 nM |
| CCc1nc(-c2nnn(C)c2Cn2ccc(CC3CC3)c(C)c2=O)ccc1N1C[C@@H](CC(=O)O)CC(F)(F)C1 [Example 10, (S)-2-(1-(6-(5-((4-(cyclopropylmethyl)-3-methyl-2-oxopyridin-1(2H)-yl)methyl)-1-methyl-1H-1,2,3-triazol-4-yl)-2-ethylpyridin-3-yl)-5,5-difluoropiperidin-3-yl)acetic acid] | 100 to 500 nM |
| CCCc1ccc(=O)n(Cc2c(-c3ccc(N4C[C@@H](F)C[C@H](CC(=O)O)C4)c(CC)n3)nnn2C)c1 (single isomer, unassigned) [Example 45, 2-((3S,5S) or (3R,5R)-1-(2-ethyl-6-(1-methyl-5-((2-oxo-5-propylpyridin-1(2H)-yl)methyl)-1H-1,2,3-triazol-4-yl)pyridin-3-yl)-5-fluoropiperidin-3-yl)acetic acid] | 100 to 500 nM |
| CCOc1ccc(=O)n(Cc2c(-c3ccc(N4C[C@@H](CC(=O)O)CC(F)(F)C4)c(CC)n3)nnn2C)c1 [Example 26, (S)-2-(1-(6-(5-((5-ethoxy-2-oxopyridin-1(2H)-yl)methyl)-1-methyl-1H-1,2,3-triazol-4-yl)-2-ethylpyridin-3-yl)-5,5-difluoropiperidin-3-yl)acetic acid] | 100 to 500 nM |
| CCCN(C)C(=O)OCc1c(-c2ccc(N3C[C@@H](CC(=O)O)CC(F)(F)C3)c(CC)n2)nnn1C [Example 146, (S)-2-(1-(2-ethyl-6-(1-methyl-5-(((methyl(propyl)carbamoyl)oxy)methyl)-1H-1,2,3-triazol-4-yl)pyridin-3-yl)-5,5-difluoropiperidin-3-yl)acetic acid] | > 5000 nM |
| Cc1nc(-c2nnn(C)c2CN2C[C@@H](CC3CC3)N(C)C2=O)ccc1N1C[C@@H](CC(=O)O)CC(F)(F)C1 [Example 62, 2-((S)-1-(6-(5-(((R)-4-(cyclopropylmethyl)-3-methyl-2-oxoimidazolidin-1-yl)methyl)-1-methyl-1H-1,2,3-triazol-4-yl)-2-methylpyridin-3-yl)-5,5-difluoropiperidin-3-yl)acetic acid] | 500 to 5000 nM |
| CCc1nc(-c2nnn(C)c2Cn2cc(C3CCC3)ccc2=O)ccc1N1C[C@@H](CC(=O)O)CC(F)(F)C1 [Example 17, (S)-2-(1-(6-(5-((5-cyclobutyl-2-oxopyridin-1(2H)-yl)methyl)-1-methyl-1H-1,2,3-triazol-4-yl)-2-ethylpyridin-3-yl)-5,5-difluoropiperidin-3-yl)acetic acid] | < 100 nM |
| CCc1nc(-c2nnn(C)c2COc2noc(CC3CC3)n2)ccc1N1C[C@@H](CC(=O)O)CC(F)(F)C1 [Example 116, (S)-2-(1-(6-(5-(((5-(cyclopropylmethyl)-1,2,4-oxadiazol-3-yl)oxy)methyl)-1-methyl-1H-1,2,3-triazol-4-yl)-2-ethylpyridin-3-yl)-5,5-difluoropiperidin-3-yl)acetic acid] | < 100 nM |
| CCc1nc(-c2nnn(C)c2COc2nccc(C3CCC3)n2)ccc1N1CCCC(CC(=O)O)C1=O (single isomer, unassigned) [Example 93, (R) or (S)-2-(1-(6-(5-(((4-cyclobutylpyrimidin-2-yl)oxy)methyl)-1-methyl-1H-1,2,3-triazol-4-yl)-2-ethylpyridin-3-yl)-2-oxopiperidin-3-yl)acetic acid] | 100 to 500 nM |
| CCc1nc(-c2nnn(C)c2COc2nccc(N3CCCC3)n2)ccc1N1CCC[C@H](CC(=O)O)C1 [Example 83, (R)-2-(1-(2-ethyl-6-(1-methyl-5-(((4-(pyrrolidin-1-yl)pyrimidin-2-yl)oxy)methyl)-1H-1,2,3-triazol-4-yl)pyridin-3-yl)piperidin-3-yl)acetic acid] | 100 to 500 nM |
| CCc1nc(-c2nnn(C)c2Cn2cc(N3CCC3)ccc2=O)ccc1N1C[C@@H](CC(=O)O)CC(F)(F)C1 [Example 27, (S)-2-(1-(6-(5-((5-(azetidin-1-yl)-2-oxopyridin-1(2H)-yl)methyl)-1-methyl-1H-1,2,3-triazol-4-yl)-2-ethylpyridin-3-yl)-5,5-difluoropiperidin-3-yl)acetic acid] | 500 to 5000 nM |

Reference: patent US12780800B1, “Triazole-pyridinyl substituted azacyclohexyl acetic acid compounds as LPA receptor antagonists” (Viva Star Biosciences Limited, priority 2021, dated 2022)
